The record followed here is ChEMBL document CHEMBL3808309, “Interpreting the behavior of concentration-response curves of hyaluronidase inhibitors under DMSO-perturbed assay conditions” (Bioorg Med Chem Lett, 2016).

Experiment [1] is described as follows: Inhibition of bovine testis hyaluronidase using hyaluronic acid as substrate preincubated with CaCl2 for 20 mins followed by incubation with of compound for 20 mins and substrate for 10 mins by colorimetric Morgan-Elson method in presence of 0.05% triton X-100. Details: species or system Bos taurus.
The nature of experiment [2]: Inhibition of bovine testis hyaluronidase using hyaluronic acid as substrate preincubated for 20 mins followed by incubation with CaCl2 for 20 mins and substrate for 10 mins by colorimetric Morgan-Elson method. Further details: species or system Bos taurus.
Experiment [3] is described as follows: Inhibition of bovine testis hyaluronidase using hyaluronic acid as substrate preincubated with CaCl2 for 20 mins followed by incubation with compound for 20 mins and substrate for 10 mins by colorimetric Morgan-Elson method. Further details: species or system Bos taurus.
Experiment [4] can be described thus: Inhibition of bovine testis hyaluronidase using hyaluronic acid as substrate preincubated with CaCl2 for 20 mins followed by incubation with compound for 20 mins and substrate for 10 mins by colorimetric Morgan-Elson method in presence of BSA. Further details: species or system Bos taurus.
The species named for experiment [5] is Bos taurus. As to the kind of experiment: Inhibition of bovine testis hyaluronidase preincubated with CaCl2 for 20 mins followed by incubation with compound for 20 mins and substrate for 10 mins by colorimetric Morgan-Elson method in presence of up to 21% DMSO.
Experiment [6] in a line: Inhibition of bovine testis hyaluronidase preincubated with CaCl2 for 20 mins followed by incubation with compound for 20 mins and substrate for 10 mins by colorimetric Morgan-Elson method in presence of urea. Details: species or system Bos taurus.
The species entered for experiment [7] is Bos taurus. As to the kind of experiment: Ratio of IC50 for inhibition of bovine testis hyaluronidase preincubated with CaCl2 for 20 mins followed by addition of compound to IC50 for inhibition of bovine testis hyaluronidase preincubated for 20 mins followed by addition of CaCl2.
For experiment [8], the species on record is Bos taurus. Put plainly: Inhibition of bovine testis hyaluronidase using hyaluronic acid as substrate at 3000 uM preincubated with CaCl2 for 20 mins followed by incubation with compound for 20 mins and substrate for 10 mins by colorimetric Morgan-Elson method in presence of 0.05% triton X-100.

Calls of active or inactive are those of the source. No cut-off for these calls is given here.

A word on the IC50: it is the concentration at which inhibition is half-maximal. The inhibition is the share of the control response that was lost under treatment. Turning to `CCCCCCCCCCCCCCCC(=O)OC[C@H](O)C1OC(=O)C(O)=C1O` (some centres not stated), the IC50 in experiment [1] worked out at 480 µM; in experiment [2], 23 µM; in experiment [3] it was 47 µM; in experiment [4], 240 µM. Also, in experiment [5], the inhibition result is “Active”.
On the same counts, the results for `O=C(O)[C@H]1O[C@@H](Oc2cc3oc(-c4ccccc4)cc(=O)c3c(O)c2O)[C@H](O)[C@@H](O)[C@@H]1O` [BAICALIN] are 1000 µM, 450 µM, 1400 µM, 1600 µM and “inactive”.
In the case of `O=C(O)c1cc(=O)c2c(OCC(O)COc3cccc4oc(C(=O)O)cc(=O)c34)cccc2o1` [CROMOLYN SODIUM], the IC50 in experiment [6] worked out at 1600 µM; in experiment [1], 1700 µM; in experiment [2] it was 330 µM; in experiment [3] it was 1700 µM; in experiment [4], 1600 µM. Also, the inhibition entry in experiment [5] was “inactive”.
On to `CC1(C)[C@@H](O[C@H]2O[C@H](C(=O)O)[C@@H](O)[C@H](O)[C@H]2O[C@@H]2O[C@H](C(=O)O)[C@@H](O)[C@H](O)[C@H]2O)CC[C@]2(C)[C@H]3C(=O)C=C4[C@@H]5C[C@@](C)(C(=O)O)CC[C@]5(C)CC[C@@]4(C)[C@]3(C)CC[C@@H]12` [GLYCYRRHIZIN], for which the Ratio IC50 in experiment [7] was > 3. Besides, the IC50 in experiment [6] is 31 µM; in experiment [1] it was 40 µM; in experiment [2], 8.5 µM; in experiment [3], 29 µM; in experiment [4] it was 61 µM. Further, the inhibition entry in experiment [5] is “inactive”.
With `COc1ccc2c(c1)c(CC(=O)O)c(C)n2C(=O)c1ccc(Cl)cc1` [INDOMETHACIN], the IC50 in experiment [2] was 340 µM; in experiment [3] it was 1400 µM; in experiment [4], 2000 µM. Further, the inhibition in experiment [8] is < 50%.
